In patent US8541588B2, “Sulfonamide derivatives” (Pfizer Limited, priority 2009, dated 2013):

Each compound was assayed against T1, Nav1.7 (or SCN9A) channel; HEK cells stably transfected with hSCN9A (Homo sapiens, UniProt Q15858) (assay: Nav1.7 block, PatchXpress 7000 automated whole-cell voltage clamp, estimated IC50 (EIC50)). Conditions: estimated IC50; hSCN9A HEK cells, PatchXpress platform; Examples 283-814.
T1 construct: expressed in transfected cells
Assay type: cell-based

T1 sequence (Q15858 whole entry): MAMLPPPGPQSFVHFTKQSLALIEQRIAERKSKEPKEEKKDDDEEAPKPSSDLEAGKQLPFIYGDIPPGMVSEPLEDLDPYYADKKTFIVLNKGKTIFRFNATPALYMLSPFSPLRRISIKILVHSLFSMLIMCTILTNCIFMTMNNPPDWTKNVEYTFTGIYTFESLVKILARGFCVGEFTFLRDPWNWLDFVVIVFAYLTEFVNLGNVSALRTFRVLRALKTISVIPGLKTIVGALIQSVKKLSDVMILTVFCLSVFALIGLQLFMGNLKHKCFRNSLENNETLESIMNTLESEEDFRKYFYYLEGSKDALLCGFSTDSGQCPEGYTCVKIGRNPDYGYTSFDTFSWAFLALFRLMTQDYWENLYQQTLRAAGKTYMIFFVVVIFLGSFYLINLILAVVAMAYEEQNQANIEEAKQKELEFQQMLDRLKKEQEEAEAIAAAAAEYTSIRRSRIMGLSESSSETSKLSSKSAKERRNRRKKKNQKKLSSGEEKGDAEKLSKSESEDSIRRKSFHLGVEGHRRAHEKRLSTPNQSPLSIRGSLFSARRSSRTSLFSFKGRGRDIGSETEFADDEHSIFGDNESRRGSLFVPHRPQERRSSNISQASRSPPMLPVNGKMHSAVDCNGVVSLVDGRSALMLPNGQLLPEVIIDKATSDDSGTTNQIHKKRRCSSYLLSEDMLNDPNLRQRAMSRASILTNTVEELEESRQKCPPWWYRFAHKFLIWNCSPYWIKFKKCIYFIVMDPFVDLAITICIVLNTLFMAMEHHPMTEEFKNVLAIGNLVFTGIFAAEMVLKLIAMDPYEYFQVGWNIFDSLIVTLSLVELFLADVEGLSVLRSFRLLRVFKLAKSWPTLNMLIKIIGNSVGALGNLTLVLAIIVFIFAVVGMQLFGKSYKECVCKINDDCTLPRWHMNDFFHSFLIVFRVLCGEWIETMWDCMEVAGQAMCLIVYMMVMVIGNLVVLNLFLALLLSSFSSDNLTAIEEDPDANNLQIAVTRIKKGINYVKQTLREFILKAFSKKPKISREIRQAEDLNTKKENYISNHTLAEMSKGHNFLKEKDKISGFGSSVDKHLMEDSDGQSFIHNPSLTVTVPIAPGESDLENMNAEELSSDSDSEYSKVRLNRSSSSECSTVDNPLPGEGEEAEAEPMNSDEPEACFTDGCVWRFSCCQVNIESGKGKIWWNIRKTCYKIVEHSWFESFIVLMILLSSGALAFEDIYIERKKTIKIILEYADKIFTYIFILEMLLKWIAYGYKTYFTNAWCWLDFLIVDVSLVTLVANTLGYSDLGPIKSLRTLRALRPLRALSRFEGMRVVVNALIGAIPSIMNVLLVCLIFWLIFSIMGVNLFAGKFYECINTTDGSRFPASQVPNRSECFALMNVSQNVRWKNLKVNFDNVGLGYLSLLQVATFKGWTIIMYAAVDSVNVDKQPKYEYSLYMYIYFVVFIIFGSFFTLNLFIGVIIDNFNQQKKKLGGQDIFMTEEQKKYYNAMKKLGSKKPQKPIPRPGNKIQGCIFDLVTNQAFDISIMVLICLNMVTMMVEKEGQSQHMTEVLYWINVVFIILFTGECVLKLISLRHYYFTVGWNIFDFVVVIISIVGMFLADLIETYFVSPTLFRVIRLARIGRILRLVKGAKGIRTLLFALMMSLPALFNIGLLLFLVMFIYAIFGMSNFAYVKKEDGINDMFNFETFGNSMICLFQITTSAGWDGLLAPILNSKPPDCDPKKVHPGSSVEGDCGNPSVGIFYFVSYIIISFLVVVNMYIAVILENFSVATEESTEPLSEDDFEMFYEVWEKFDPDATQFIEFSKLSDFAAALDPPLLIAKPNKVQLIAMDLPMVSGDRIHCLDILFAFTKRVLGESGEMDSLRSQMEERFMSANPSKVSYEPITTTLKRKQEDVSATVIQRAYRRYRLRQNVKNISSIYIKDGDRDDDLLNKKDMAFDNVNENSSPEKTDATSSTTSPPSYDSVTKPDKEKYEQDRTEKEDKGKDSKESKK

Compared with `O=S(=O)(Nc1nccs1)c1cc(F)c(Oc2ccc(OC(F)(F)F)cc2-c2cn[nH]c2)cc1F` [Example 677, 2,5-difluoro-4-[2-(1H-pyrazol-4-yl)-4-(trifluoromethoxy)phenoxy]-N-1,3-thiazol-2-ylbenzenesulfonamide], `O=S(=O)(Nc1nccs1)c1ccc(Oc2ccc(OC(F)(F)F)cc2-c2cn[nH]c2)c(F)c1` [Example 687, 3-fluoro-4-[2-(1H-pyrazol-4-yl)-4-(trifluoromethoxy)phenoxy]-N-1,3-thiazol-2-ylbenzenesulfonamide] is 6.7-fold higher in IC50: 12 nM for the first, 80 nM for the second. The first is the more potent here.

Going from `Cn1nc(C(F)(F)F)cc1-c1ccc(Oc2cc(F)c(S(=O)(=O)Nc3nccs3)cc2F)cc1` [Example 678, 2,5-difluoro-4-{4-[1-methyl-3-(trifluoromethyl)-1H-pyrazol-5-yl]phenoxy}-N-1,3-thiazol-2-ylbenzenesulfonamide] to `Cn1nc(C(F)(F)F)cc1-c1ccc(Oc2cc(F)c(S(=O)(=O)Nc3ncc(F)s3)cc2F)cc1` [Example 682, 2,5-difluoro-N-(5-fluoro-1,3-thiazol-2-yl)-4-{4-[1-methyl-3-(trifluoromethyl)-1H-pyrazol-5-yl]phenoxy}benzenesulfonamide], the IC50 rises from 260 nM to 710 nM (2.7-fold).

`O=S(=O)(Nc1nccs1)c1cc(F)c(Oc2ccc(Cl)cc2-c2cn[nH]c2)cc1F` [Example 679, 4-[4-chloro-2-(1H-pyrazol-4-yl)phenoxy]-2,5-difluoro-N-1,3-thiazol-2-ylbenzenesulfonamide] and `O=S(=O)(Nc1ncc(F)s1)c1cc(F)c(Oc2ccc(Cl)cc2-c2cn[nH]c2)cc1F` [Example 683, 4-[4-chloro-2-(1H-pyrazol-4-yl)phenoxy]-2,5-difluoro-N-(5-fluoro-1,3-thiazol-2-yl)benzenesulfonamide] are within 1.5-fold of each other in IC50: 31 nM for the first, 22 nM for the second.

`O=S(=O)(Nc1cscn1)c1ccc(Oc2ccc(Cl)cc2-c2cn[nH]c2)cc1F` [Example 680, 4-[4-chloro-2-(1H-pyrazol-4-yl)phenoxy]-2-fluoro-N-1,3-thiazol-4-ylbenzenesulfonamide] and `Cn1nccc1-c1cc(Cl)ccc1Oc1ccc(S(=O)(=O)Nc2cscn2)c(F)c1` [Example 681, 4-[4-chloro-2-(1-methyl-1H-pyrazol-5-yl)phenoxy]-2-fluoro-N-1,3-thiazol-4-ylbenzenesulfonamide] are within 1.5-fold of each other in IC50: 1000 nM for the first, 1200 nM for the second.

First: Cn1nc(C(F)(F)F)cc1-c1ccc(Oc2ccc(S(=O)(=O)Nc3nccs3)cc2F)cc1 [Example 684, 3-fluoro-4-{4-[1-methyl-3-(trifluoromethyl)-1H-pyrazol-5-yl]phenoxy}-N-1,3-thiazol-2-ylbenzenesulfonamide]
Second: CCn1nc(C(F)(F)F)c(Cl)c1-c1ccc(Oc2ccc(S(=O)(=O)Nc3nccs3)cc2C#N)cc1 [Example 695, 4-{4-[4-chloro-1-ethyl-3-(trifluoromethyl)-1H-pyrazol-5-yl]phenoxy}-3-cyano-N-1,3-thiazol-2-ylbenzenesulfonamide]
The IC50 of the first is 2.9-fold higher: 1000 nM for the first, 340 nM for the second. The second is the more potent here.

First: O=S(=O)(Nc1nccs1)c1ccc(Oc2ccc(Cl)cc2-c2cn[nH]c2)c(F)c1 [Example 685, 4-[4-chloro-2-(1H-pyrazol-4-yl)phenoxy]-3-fluoro-N-1,3-thiazol-2-ylbenzenesulfonamide]
Second: O=S(=O)(Nc1nccs1)c1ccc(Oc2ccc(F)cc2-c2cn[nH]c2)c(F)c1 [Example 686, 3-fluoro-4-[4-fluoro-2-(1H-pyrazol-4-yl)phenoxy]-N-1,3-thiazol-2-ylbenzenesulfonamide]
The IC50 of the first is 2.5-fold lower: 130 nM for the first, 330 nM for the second.

Going from `COc1cc(-c2cc(F)ccc2Oc2cc(F)c(S(=O)(=O)Nc3cscn3)cc2Cl)n(C)n1` [Example 688, 5-Chloro-2-fluoro-4-[4-fluoro-2-(3-methoxy-1-methyl-1H-pyrazol-5-yl)-phenoxy]-N-1,3-thiazol-4-yl-benzenesulfonamide] to `Cn1nccc1-c1cc(CCCO)ccc1Oc1ccc(S(=O)(=O)Nc2ncc(F)s2)cc1C#N` [Example 715, 3-cyano-N-(5-fluoro-1,3-thiazol-2-yl)-4-[4-(3-hydroxypropyl)-2-(1-methyl-1H-pyrazol-5-yl)phenoxy]benzenesulfonamide], the IC50 falls from 5100 nM to 210 nM (24-fold). The second is the more potent here.

Compared with `N#Cc1cc(S(=O)(=O)Nc2nccs2)ccc1Oc1ccc(Cl)cc1C1CNC1` [Example 690, 4-(2-azetidin-3-yl-4-chlorophenoxy)-3-cyano-N-1,3-thiazol-2-ylbenzenesulfonamide], `N#Cc1cc(S(=O)(=O)Nc2nccs2)ccc1Oc1ccc(Cl)cc1-c1ccn[nH]1` [Example 709, 4-[4-chloro-2-(1H-pyrazol-5-yl)phenoxy]-3-cyano-N-1,3-thiazol-2-ylbenzenesulfonamide] is 7.9-fold lower in IC50: 110 nM for the first, 14 nM for the second. The second is the more potent here.

Compared with `Cc1ccccc1-c1cc(Cl)ccc1Oc1ccc(S(=O)(=O)Nc2nccs2)cc1C#N` [Example 692, 4-[(5-chloro-2′-methylbiphenyl-2-yl)oxy]-3-cyano-N-1,3-thiazol-2-ylbenzenesulfonamide], `N#Cc1cc(S(=O)(=O)Nc2nccs2)ccc1Oc1ccc(Cl)cc1-c1c[nH]nc1N` [Example 706, 4-[2-(3-amino-1H-pyrazol-4-yl)-4-chlorophenoxy]-3-cyano-N-1,3-thiazol-2-ylbenzenesulfonamide] is 4.2-fold lower in IC50: 110 nM for the first, 26 nM for the second. The second is the more potent here.

`Cn1cc(-c2cc(Cl)ccc2Oc2ccc(S(=O)(=O)Nc3nccs3)cc2C#N)cn1` [Example 693, 4-[4-chloro-2-(1-methyl-1H-pyrazol-4-yl)phenoxy]-3-cyano-N-1,3-thiazol-2-ylbenzenesulfonamide] and `N#Cc1cc(S(=O)(=O)Nc2nccs2)ccc1Oc1ccc(Cl)cc1-c1cccnc1` [Example 700, 4-(4-chloro-2-pyridin-3-ylphenoxy)-3-cyano-N-1,3-thiazol-2-ylbenzenesulfonamide] are within 1.5-fold of each other in IC50: 81 nM for the first, 57 nM for the second.

Compared with `N#Cc1cc(S(=O)(=O)Nc2nccs2)ccc1Oc1ccc(Cl)cc1-c1cnn[nH]1` [Example 694, 4-[4-chloro-2-(1H-1,2,3-triazol-5-yl)phenoxy]-3-cyano-N-1,3-thiazol-2-ylbenzenesulfonamide], `N#Cc1cc(S(=O)(=O)Nc2nccs2)ccc1Oc1ccc(Cl)cc1-c1[nH]ncc1F` [Example 710, 4-[4-chloro-2-(4-fluoro-1H-pyrazol-5-yl)phenoxy]-3-cyano-N-1,3-thiazol-2-ylbenzenesulfonamide] is 5.5-fold lower in IC50: 480 nM for the first, 88 nM for the second.

Compared with `N#Cc1cc(S(=O)(=O)Nc2nccs2)ccc1Oc1ccc(I)cc1-c1cn[nH]c1` [Example 696, 3-cyano-4-[4-iodo-2-(1H-pyrazol-4-yl)phenoxy]-N-1,3-thiazol-2-ylbenzenesulfonamide], `N#Cc1cc(S(=O)(=O)Nc2nccs2)ccc1Oc1ccc(Br)cc1-c1cn[nH]c1` [Example 697, 4-[4-Bromo-2-(1H-pyrazol-4-yl)phenoxy]-3-cyano-N-1,3-thiazol-2-ylbenzenesulfonamide] is 56-fold lower in IC50: 78 nM for the first, 1.4 nM for the second.

First: Cc1ncsc1-c1cc(Cl)ccc1Oc1ccc(S(=O)(=O)Nc2nccs2)cc1C#N [Example 698, 4-[4-chloro-2-(4-methyl-1,3-thiazol-5-yl)phenoxy]-3-cyano-N-1,3-thiazol-2-ylbenzenesulfonamide]
Second: N#Cc1cc(S(=O)(=O)Nc2nccs2)ccc1Oc1ccc(Cl)cc1-c1cncnc1 [Example 701, 4-(4-chloro-2-pyrimidin-5-ylphenoxy)-3-cyano-N-1,3-thiazol-2-ylbenzenesulfonamide]
The IC50 of the first is 3.1-fold lower: 96 nM for the first, 300 nM for the second. The first is the more potent here.

First: Cn1nccc1-c1ccc(C(F)(F)F)cc1Oc1ccc(S(=O)(=O)Nc2nccs2)cc1C#N [Example 699, 3-cyano-4-[2-(1-methyl-1H-pyrazol-5-yl)-5-(trifluoromethyl)phenoxy]-N-1,3-thiazol-2-ylbenzenesulfonamide]
Second: Cn1nccc1-c1cc(Br)ccc1Oc1ccc(S(=O)(=O)Nc2nccs2)cc1C#N [Example 705, 4-[4-bromo-2-(1-methyl-1H-pyrazol-5-yl)phenoxy]-3-cyano-N-1,3-thiazol-2-ylbenzenesulfonamide]
The IC50 of the first is 9.3-fold higher: 140 nM for the first, 15 nM for the second.

Going from `COc1cc(-c2ccccc2Oc2ccc(S(=O)(=O)Nc3nccs3)cc2C#N)ccc1C#N` [Example 703] to `N#Cc1cc(S(=O)(=O)Nc2nccs2)ccc1Oc1ccccc1-c1cn[nH]c1N` [Example 707, 4-[2-(5-amino-1H-pyrazol-4-yl)phenoxy]-3-cyano-N-1,3-thiazol-2-ylbenzenesulfonamide], the IC50 falls from 190 nM to 120 nM (1.6-fold).

Compared with `N#Cc1cc(S(=O)(=O)Nc2nccs2)ccc1Oc1ccc(OC(F)(F)F)cc1-c1cn[nH]c1` [Example 704, 3-cyano-4-[2-(1H-pyrazol-4-yl)-4-(trifluoromethoxy)phenoxy]-N-1,3-thiazol-2-ylbenzenesulfonamide], `N#Cc1cc(S(=O)(=O)Nc2nccs2)ccc1Oc1cc(Cl)ccc1-c1ccn[nH]1` [Example 711, 4-[5-chloro-2-(1H-pyrazol-5-yl)phenoxy]-3-cyano-N-1,3-thiazol-2-ylbenzenesulfonamide] is 3.6-fold higher in IC50: 11 nM for the first, 40 nM for the second. The first is the more potent here.

First: N#Cc1cc(S(=O)(=O)Nc2nccs2)ccc1Oc1ccc(-n2nc(C(F)F)cc2CO)cc1 [Example 708, 3-cyano-4-{4-[3-(difluoromethyl)-5-(hydroxymethyl)-1H-pyrazol-1-yl]phenoxy}-N-1,3-thiazol-2-ylbenzenesulfonamide]
Second: N#Cc1cc(S(=O)(=O)Nc2ncc(F)s2)ccc1Oc1ccc(I)cc1-c1ccn[nH]1 [Example 713, 3-Cyano-N-(5-fluoro-1,3-thiazol-2-yl)-4-[4-iodo-2-(1H-pyrazol-5-yl)phenoxy]benzenesulfonamide]
The IC50 of the first is 170-fold higher: 400 nM for the first, 2.4 nM for the second. The second is the more potent here.

Going from `Cc1nc(NS(=O)(=O)c2ccc(Oc3ccccc3-c3ccccc3)c(C#N)c2)sc1F` [Example 712, 4-(biphenyl-2-yloxy)-3-cyano-N-(5-fluoro-4-methyl-1,3-thiazol-2-yl)benzenesulfonamide] to `N#Cc1cc(S(=O)(=O)Nc2ncc(F)s2)ccc1Oc1ccc(CCCO)cc1-c1cn[nH]c1` [Example 714, 3-cyano-N-(5-fluoro-1,3-thiazol-2-yl)-4-[4-(3-hydroxypropyl)-2-(1H-pyrazol-4-yl)phenoxy]benzenesulfonamide], the IC50 falls from 1200 nM to 190 nM (6.3-fold). The second is the more potent here.

`O=S(=O)(Nc1cscn1)c1cc(Cl)c(Oc2ccc(C(F)(F)F)cc2-c2cncc(CO)c2)cc1F` [Example 689, 5-Chloro-2-fluoro-4-{2-[5-(hydroxymethyl)pyridin-3-yl]-4-(trifluoromethyl)phenoxy}-N-1,3-thiazol-4-ylbenzenesulfonamide] showed an IC50 greater than 300 nM.
